Patent US20260356820A1, “Pyrrolidine and Imidazolidine Based DNA Polymerase Theta Inhibitors and Use Thereof” (Thomas Jefferson University, priority 2022, published 2026)

biological target: T1, human Polq polymerase domain (Homo sapiens, UniProt O75417); experiment: Cy5 fluorescence assay of Polq polymerase domain inhibition; format: biochemical; settings: not given
T1 sequence (O75417 1792-2590): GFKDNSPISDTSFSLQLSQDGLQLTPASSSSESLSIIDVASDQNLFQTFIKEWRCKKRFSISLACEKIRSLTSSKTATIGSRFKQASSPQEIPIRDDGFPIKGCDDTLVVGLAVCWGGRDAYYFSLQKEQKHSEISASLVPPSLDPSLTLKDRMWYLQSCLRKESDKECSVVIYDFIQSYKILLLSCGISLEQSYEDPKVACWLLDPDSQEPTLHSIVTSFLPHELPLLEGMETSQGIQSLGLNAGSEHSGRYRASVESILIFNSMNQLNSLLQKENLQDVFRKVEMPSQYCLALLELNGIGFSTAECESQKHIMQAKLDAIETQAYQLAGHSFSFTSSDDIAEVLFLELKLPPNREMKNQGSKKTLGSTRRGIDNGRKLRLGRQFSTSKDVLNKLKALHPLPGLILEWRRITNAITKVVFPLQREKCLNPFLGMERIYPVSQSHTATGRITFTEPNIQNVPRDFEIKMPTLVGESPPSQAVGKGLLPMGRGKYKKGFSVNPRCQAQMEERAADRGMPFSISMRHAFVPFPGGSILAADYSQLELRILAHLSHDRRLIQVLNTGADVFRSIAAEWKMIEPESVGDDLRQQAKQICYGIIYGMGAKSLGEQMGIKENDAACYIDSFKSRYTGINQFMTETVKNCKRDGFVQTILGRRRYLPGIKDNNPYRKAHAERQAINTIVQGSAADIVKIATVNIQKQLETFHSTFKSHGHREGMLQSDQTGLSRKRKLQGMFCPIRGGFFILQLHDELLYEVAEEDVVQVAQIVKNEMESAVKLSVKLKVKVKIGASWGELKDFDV
Protocol: The following Cy5 fluorescence assay was used to measure the ability of compounds to inhibit Polq polymerase domain in vitro. The fluorescent based assay was performed as follows: 60 nM of the pre-annealed primer-template containing a 5′ Cy5 fluorophore conjugated template strand (SEQ ID NO:3: 5′-/5Cy5/[…]-3′), a downstream complementary oligo conjugated with a 3′ Blackhole quencher (SEQ ID NO:4: 5′-CTAAGCTCACAGTG/3IAbRQSp/-3′) and a primer strand (SEQ ID NO:5: 5′-CTGTCCTGCATGATG-3′) was mixed with 50 uM 2′-deoxyribonucleoside triphosphates (dNTPs), 0.1 mg/mL Bovine serum albumin (BSA), 0.01% NP-40, 10% glycerol, 1 mM dithiothreitol (DTT), 10 mM MgCl2, 25 mM TrisHCl pH 7.8 in the presence of 2.5% DMSO with or without various concentrations (7-point dilution series) of Polq small molecule inhibitors represented by Formula I at 37 °C in a volume of 40 μL.

Compound	IC50 [nM]
[2H]C([2H])([2H])N(C(=O)Oc1c(N2CCN(CC3(OS(N)(=O)=O)CN(C(=O)OC(C)(C)C)C3)C2=O)cc(C(F)(F)F)cc1C(F)(F)F)c1ccc(F)c(Cl)c1F [Example 39, tert-butyl 3-((3-(2-(((3-chloro-2,4-difluorophenyl)(methyl-d3)carbamoyl)oxy)-3,5-bis(trifluoromethyl)phenyl)-2-oxoimidazolidin-1-yl)methyl)-3-(sulfamoyloxy)azetidine-1-carboxylate]	3.8
[2H]C([2H])([2H])N(C(=O)Oc1c(N2CCN(CC(O)CN(C)C)C2=O)cc(C(F)(F)F)cc1C(F)(F)F)c1ccc(F)c(Cl)c1F (centres unmarked) [Example 40, 2-(3-(3-(dimethylamino)-2-hydroxypropyl)-2-oxoimidazolidin-1-yl)-4,6-bis(trifluoromethyl)phenyl (3-chloro-2,4-difluorophenyl)(methyl-d3)carbamate]	6.3
[2H]C([2H])([2H])N(C(=O)Oc1c(N2C[C@@H](O)[C@@H](O)C2)cc(C(F)(F)F)cc1C(F)(F)F)c1ccc(F)cc1 [Example 41]	5.5
[2H]C([2H])([2H])N(C(=O)Oc1c(N2CCN(CCn3ccnc3)C2=O)cc(C(F)(F)F)cc1C(F)(F)F)c1ccc(F)cc1 [Example 42, 2-(3-(2-(1H-imidazol-1-yl)ethyl)-2-oxoimidazolidin-1-yl)-4,6-bis(trifluoromethyl)phenyl (4-fluorophenyl)(methyl-d3)carbamate]	11.7
[2H]C([2H])([2H])N(C(=O)Oc1c(N2CCN(CCn3cnnc3)C2=O)cc(C(F)(F)F)cc1C(F)(F)F)c1ccc(F)cc1 [Example 43, 2-(3-(2-(4H-1,2,4-triazol-4-yl)ethyl)-2-oxoimidazolidin-1-yl)-4,6-bis(trifluoromethyl)phenyl (4-fluorophenyl)(methyl-d3)carbamate]	5.4
[2H]C([2H])([2H])N(C(=O)Oc1c(N2CCN(CC(O)CNC)C2=O)cc(C(F)(F)F)cc1C(F)(F)F)c1ccc(F)c(Cl)c1F (centres unmarked) [Example 44, 2-(3-(2-hydroxy-3-(methylamino)propyl)-2-oxoimidazolidin-1-yl)-4,6-bis(trifluoromethyl)phenyl (3-chloro-2,4-difluorophenyl)(methyl-d3)carbamate]	7
CNCC(O)CN1CCN(c2cc(C(F)(F)F)cc(C(F)(F)F)c2OC(=O)N(C)c2ccc(F)c(Cl)c2F)C1=O (centres unmarked) [Example 47, 2-(3-(2-hydroxy-3-(methylamino)propyl)-2-oxoimidazolidin-1-yl)-4,6-bis(trifluoromethyl)phenyl (3-chloro-2,4-difluorophenyl)(methyl)carbamate]	4.8

same assay, conditions: 5 nM Polq polymerase domain (residues 1792-2590), 60 nM primer-template, 50 uM dNTPs, 37 °C, 18 min; read-out: IC50 (nM) Polq

Compound	IC50 [nM]
[2H]C([2H])([2H])N(C(=O)Oc1c(N2CCN(CC(O)CNC)C2=O)cc(C(F)(F)F)cc1C(F)(F)F)c1ccc(F)cc1 (centres unmarked) [Example 45, 2-(3-(2-hydroxy-3-(methylamino)propyl)-2-oxoimidazolidin-1-yl)-4,6-bis(trifluoromethyl)phenyl (4-fluorophenyl)(methyl-d3)carbamate]	6.1
[2H]C([2H])([2H])N(C(=O)Oc1c(N2CCN(CC(O)CN(C)C)C2=O)cc(C(F)(F)F)cc1C(F)(F)F)c1ccc(F)cc1 (centres unmarked) [Example 46, 2-(3-(3-(dimethylamino)-2-hydroxypropyl)-2-oxoimidazolidin-1-yl)-4,6-bis(trifluoromethyl)phenyl (4-fluorophenyl)(methyl-d3)carbamate]	5.5
CNCC(O)CN1CCN(c2cc(C(F)(F)F)cc(C(F)(F)F)c2OC(=O)N(C)c2ccc(F)cc2)C1=O (centres unmarked) [Example 48, 2-(3-(2-hydroxy-3-(methylamino)propyl)-2-oxoimidazolidin-1-yl)-4,6-bis(trifluoromethyl)phenyl (4-fluorophenyl)(methyl)carbamate]	5.1
[2H]C([2H])([2H])N(C(=O)Oc1c(N2CCN(C[C@@H](O)CN(C)C)C2=O)cc(C(F)(F)F)cc1C(F)(F)F)c1ccc(F)cc1 [Example 49, (S)-2-(3-(3-(dimethylamino)-2-hydroxypropyl)-2-oxoimidazolidin-1-yl)-4,6-bis(trifluoromethyl)phenyl (4-fluorophenyl)(methyl-d3)carbamate]	7.5
